From US7332601B2, “CCI-779 derivatives and methods of making same” (Wyeth, priority 2004, dated 2008)

Experiments:
breast cancer lines = settings: one of two breast cancer lines studied in vivo; cited from earlier work
[1] = test system: human glioblastoma cell line; settings: human glioblastoma cell line in vitro; cited from earlier work
CYP450 2A6 = molecular target: T1, CYP450 2A6 (Homo sapiens, UniProt P11509); assay: Generation of CCI-779 derivatives by CYP450 isozyme incubation; format: in vitro ADME
T1 sequence (P11509 1-494): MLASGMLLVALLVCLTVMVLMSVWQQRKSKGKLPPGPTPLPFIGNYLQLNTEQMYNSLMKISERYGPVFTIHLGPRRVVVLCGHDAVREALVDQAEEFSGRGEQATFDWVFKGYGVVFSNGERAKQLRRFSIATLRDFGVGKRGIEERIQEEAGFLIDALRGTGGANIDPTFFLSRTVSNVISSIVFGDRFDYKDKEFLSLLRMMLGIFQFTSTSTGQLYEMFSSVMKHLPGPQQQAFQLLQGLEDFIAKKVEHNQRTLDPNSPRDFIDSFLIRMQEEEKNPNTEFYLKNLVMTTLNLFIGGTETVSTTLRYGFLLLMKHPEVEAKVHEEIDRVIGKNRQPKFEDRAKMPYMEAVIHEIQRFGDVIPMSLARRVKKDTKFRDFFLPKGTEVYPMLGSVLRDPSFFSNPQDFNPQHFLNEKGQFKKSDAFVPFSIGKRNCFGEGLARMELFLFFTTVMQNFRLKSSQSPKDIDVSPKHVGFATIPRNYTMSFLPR

[2] = test system: human tumor xenografts of diverse histological types; settings: nude mice, cited from earlier work
CYP3A4 = molecular target: T2, CYP3A4 (Homo sapiens, UniProt P08684); assay: Generation of CCI-779 derivatives by CYP450 isozyme incubation; format: in vitro ADME
T2 construct: host or cells: E. coli (membrane preparation)
Procedure: The invention provides a method of generating specific derivatives of CCI-779 by incubating CCI-779 with membranes of recombinant E. coli cells expressing human cytochrome P450-3A4 isozymes.
In order to generate the specific hydroxylation derivatives of the invention, CCI-779 and CYP3A4 may be incubated in the presence of a reducing agent, such as NADH or NADPH. Suitably, CCI-779 and the enzyme can be present in a ratio of 300:1 to 500:1, and desirably about 330:1 CCI-779 to enzyme. In the examples below, these components are mixed to a final concentration of 0.1 mM CCI-779, 300 nM 3A4 enzyme, and 2 mM NADPH regenerate system. However, other concentrations can be readily used.
To a 5L reactor containing CCI-779 514 mg (0.5 mmol), MgCl2 (0.4 M×100 ml), NADPH generating system (NADP sodium salt: 75 mg×100 mL, D-glucose-6-phospate: 60 mg/mL×100 mL; glucose-6-phosphate dehydrogenase: 25 units/mL×100 mL), and E. coli-expressed CYP-3A4 membrane (1500 nmol) was added potassium phosphate buffer solution to 5L. The mixture solution was incubated at 37° C. under oxygen atmosphere (sparging O2 at 0.3 L/min) with agitation of 125 rpm for one hour. After one-hour reaction, the reaction solution was cooled down to 25° C. on an ice bath and extracted with an equal volume of ethyl acetate twice. […]

CYP450 2E1 = CYP450 2E1 (Homo sapiens, UniProt P05181); assay: as above; format: in vitro ADME
CYP450 2C19 = CYP450 2C19 (Homo sapiens, UniProt P33261); assay: as above; format: in vitro ADME
CYP450 2C9 = CYP450 2C9 (Homo sapiens, UniProt P11712); assay: as above; format: in vitro ADME
CYP450 2C8 = molecular target: T3, CYP450 2C8 (Homo sapiens, UniProt P10632); assay: as above; format: in vitro ADME
T3 sequence (P10632 1-490): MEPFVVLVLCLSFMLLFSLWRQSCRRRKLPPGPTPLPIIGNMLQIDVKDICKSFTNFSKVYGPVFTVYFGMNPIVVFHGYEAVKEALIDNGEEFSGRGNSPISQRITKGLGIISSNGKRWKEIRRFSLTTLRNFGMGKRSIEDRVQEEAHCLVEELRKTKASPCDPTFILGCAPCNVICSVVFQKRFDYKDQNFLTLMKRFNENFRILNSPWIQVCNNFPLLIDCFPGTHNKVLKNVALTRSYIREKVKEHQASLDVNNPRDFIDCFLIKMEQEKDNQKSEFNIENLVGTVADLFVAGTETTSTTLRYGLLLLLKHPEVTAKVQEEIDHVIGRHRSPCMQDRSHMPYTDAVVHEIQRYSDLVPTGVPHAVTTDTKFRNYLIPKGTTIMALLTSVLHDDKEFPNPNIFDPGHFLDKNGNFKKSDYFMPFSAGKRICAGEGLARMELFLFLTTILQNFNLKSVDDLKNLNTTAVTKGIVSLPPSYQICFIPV

[3] = test system: histologically diverse tumor cells; settings: cited from earlier work
orthotopic glioma model = settings: nude mice; cited from earlier work
human pancreatic tumors = settings: several human pancreatic tumors in nude mice; cited from earlier work

T2 sequence (P08684 whole entry): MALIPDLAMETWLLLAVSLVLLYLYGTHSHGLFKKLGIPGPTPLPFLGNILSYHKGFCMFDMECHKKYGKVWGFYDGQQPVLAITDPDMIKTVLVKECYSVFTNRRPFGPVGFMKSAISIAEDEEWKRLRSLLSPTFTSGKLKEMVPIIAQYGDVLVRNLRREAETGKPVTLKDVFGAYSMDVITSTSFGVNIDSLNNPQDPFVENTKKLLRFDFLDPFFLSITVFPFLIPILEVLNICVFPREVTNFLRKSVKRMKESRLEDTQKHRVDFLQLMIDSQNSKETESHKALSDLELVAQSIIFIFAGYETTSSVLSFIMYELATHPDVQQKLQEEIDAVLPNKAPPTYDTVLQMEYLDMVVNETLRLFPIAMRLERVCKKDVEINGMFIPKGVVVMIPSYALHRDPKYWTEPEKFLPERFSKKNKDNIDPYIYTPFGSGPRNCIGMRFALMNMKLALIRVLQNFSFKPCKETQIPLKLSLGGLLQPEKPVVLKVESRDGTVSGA
Chain of CYP450 2C9 (P11712 whole entry): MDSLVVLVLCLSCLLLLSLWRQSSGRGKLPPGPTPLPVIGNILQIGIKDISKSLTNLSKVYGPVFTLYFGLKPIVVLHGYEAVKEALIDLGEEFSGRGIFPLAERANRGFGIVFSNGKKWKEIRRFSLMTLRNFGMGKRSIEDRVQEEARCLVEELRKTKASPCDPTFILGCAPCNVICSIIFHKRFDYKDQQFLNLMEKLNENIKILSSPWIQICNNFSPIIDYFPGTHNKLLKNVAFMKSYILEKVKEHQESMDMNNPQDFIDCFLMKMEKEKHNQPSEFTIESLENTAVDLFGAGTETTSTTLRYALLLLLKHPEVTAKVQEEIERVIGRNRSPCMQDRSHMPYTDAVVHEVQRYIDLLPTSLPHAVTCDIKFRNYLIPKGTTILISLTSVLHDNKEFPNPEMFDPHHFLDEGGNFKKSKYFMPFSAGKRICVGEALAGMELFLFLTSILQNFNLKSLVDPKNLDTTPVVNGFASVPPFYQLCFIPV
Chain of CYP450 2C19 (P33261 whole entry): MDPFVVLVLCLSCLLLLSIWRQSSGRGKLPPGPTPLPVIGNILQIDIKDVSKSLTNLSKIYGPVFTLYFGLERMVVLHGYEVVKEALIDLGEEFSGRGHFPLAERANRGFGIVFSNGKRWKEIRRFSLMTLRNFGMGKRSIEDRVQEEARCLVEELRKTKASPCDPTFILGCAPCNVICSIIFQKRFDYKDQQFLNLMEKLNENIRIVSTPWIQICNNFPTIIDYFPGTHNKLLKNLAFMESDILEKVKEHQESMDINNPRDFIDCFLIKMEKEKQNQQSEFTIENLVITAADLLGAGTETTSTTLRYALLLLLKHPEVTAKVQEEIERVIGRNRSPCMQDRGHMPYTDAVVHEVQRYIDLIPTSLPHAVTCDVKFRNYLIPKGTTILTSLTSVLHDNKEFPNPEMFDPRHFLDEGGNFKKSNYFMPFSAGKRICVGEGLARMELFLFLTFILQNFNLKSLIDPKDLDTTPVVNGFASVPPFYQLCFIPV
Chain of CYP450 2E1 (P05181 whole entry): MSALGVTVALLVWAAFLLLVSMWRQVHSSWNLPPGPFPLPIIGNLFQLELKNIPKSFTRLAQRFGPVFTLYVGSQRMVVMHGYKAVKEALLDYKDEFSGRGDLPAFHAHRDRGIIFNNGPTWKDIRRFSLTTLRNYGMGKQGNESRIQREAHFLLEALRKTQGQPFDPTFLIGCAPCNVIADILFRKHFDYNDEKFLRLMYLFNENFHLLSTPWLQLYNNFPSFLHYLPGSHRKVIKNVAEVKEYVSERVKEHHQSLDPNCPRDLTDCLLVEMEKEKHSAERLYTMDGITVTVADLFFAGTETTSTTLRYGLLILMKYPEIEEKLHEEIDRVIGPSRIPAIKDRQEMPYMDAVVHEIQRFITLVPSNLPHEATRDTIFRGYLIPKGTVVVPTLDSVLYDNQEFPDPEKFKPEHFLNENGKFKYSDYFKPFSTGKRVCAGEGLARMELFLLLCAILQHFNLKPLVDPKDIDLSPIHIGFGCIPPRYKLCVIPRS

- generation of CCI-779 derivatives by the enzyme (CYP450 2A6): not able to generate these derivatives
- generation of CCI-779 derivatives by the enzyme (CYP450 2E1): not able to generate these derivatives
- generation of CCI-779 derivatives by the enzyme (CYP450 2C19): not able to generate these derivatives
- generation of CCI-779 derivatives by the enzyme (CYP450 2C9): not able to generate these derivatives
- generation of CCI-779 derivatives by the enzyme (CYP450 2C8): not able to generate these derivatives
Structure (SMILES): CO[C@H]1CC2CC[C@@H](C)[C@@](O)(O2)C(=O)C(=O)N2CCCC[C@H]2C(=O)O[C@H]([C@H](C)C[C@@H]2CC[C@@H](OC(=O)C(C)(CO)CO)[C@H](OC)C2)CC(=O)[C@H](C)/C=C(\C)[C@@H](O)[C@@H](OC)C(=O)[C@H](C)C[C@H](C)/C=C/C=C/C=C/1C [CCI-779, Rapamycin 42-ester with 2,2-bis(hydroxymethyl)propionic acid]
- tumor growth (breast cancer lines): inhibited
- growth factor (platelet-derived)-induced stimulation [1]: markedly suppressed
- sensitivity of gliomas ([2]; gliomas): particularly sensitive
- activity against human tumor xenografts [2]: has activity
- generation of CCI-779 derivatives by the enzyme (CYP3A4): the only member of this family of enzymes to specifically generate CCI-779 derivatives
- sensitivity of tumor lines ([3]; CNS cancer, leukemia (T-cell), breast cancer, prostate cancer and melanoma lines): among the most sensitive
- inhibition of growth of tumor cells ([3]; in vitro, a number of histologically diverse tumor cells): inhibit the growth
- cell cycle effect ([3]; in vitro): arrested cells in the G1 phase
- activity in orthotopic glioma model (orthotopic glioma model): active
- tumor growth (human pancreatic tumors): inhibited
